Assay results from PubChem BioAssay AID2791 (The Scripps Research Institute Molecular Screening Center, 2010).
Active and inactive are the calls of the source.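 The calls were made as follows: active = blockers of MCL1 binding to BIM peptide with IC50 at or below 10 micromolar; inactive = IC50 above 10 micromolar.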

target: Induced myeloid leukemia cell differentiation protein Mcl-1 (Homo sapiens) (UniProt Q07820); experiment: MCL1 binding to BIM-BH3 peptide, inhibitors, dose response, biochemical, fluorescence polarization, GST-MCL1, FITC-BIM-BH3, powder samples (AID 2791)
Sequence (Q07820 whole entry, looked up): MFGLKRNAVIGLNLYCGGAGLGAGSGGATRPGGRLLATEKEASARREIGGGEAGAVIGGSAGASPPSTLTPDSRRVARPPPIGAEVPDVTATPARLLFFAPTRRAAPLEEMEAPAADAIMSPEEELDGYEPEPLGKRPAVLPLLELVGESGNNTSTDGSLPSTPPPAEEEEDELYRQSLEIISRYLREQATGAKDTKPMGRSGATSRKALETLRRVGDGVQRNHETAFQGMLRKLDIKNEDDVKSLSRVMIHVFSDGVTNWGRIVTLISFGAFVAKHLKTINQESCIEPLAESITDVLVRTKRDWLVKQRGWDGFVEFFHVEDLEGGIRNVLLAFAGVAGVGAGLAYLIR

IC50	SMILES
inactive	CCc1sc(C(C2C(=O)CC(C)(C)CC2=O)C2C(=O)CC(C)(C)CC2=O)cc1[N+](=O)[O-]
1.45 µM	COc1ccc(-n2cccc2/C=C2\C(=N)N3N=C(c4ccco4)SC3=NC2=O)cc1
4.09 µM	C=CCn1c(SCC(=O)c2ccc(O)c(O)c2)nnc1-c1cccnc1
inactive	Cc1cccc(NC(=O)CNC(=O)c2cccc(-n3cccc3)c2)c1C
> 109 µM (inactive)	O=C1COc2ccc(C(=O)COC(=O)/C=C/c3ccc(Br)o3)cc2N1
0.844 µM	C=CCN=c1scc(-c2ccco2)n1/N=C/c1ccc(O)c(O)c1O
> 109 µM (inactive)	CCOc1ccc(NC(=O)c2cccc(-n3cccc3)c2)cc1S(=O)(=O)N1CCOCC1
> 109 µM (inactive)	O=C(NN=Cc1ccc(-c2ccc(S(=O)(=O)Nc3ncccn3)cc2)o1)c1cc2ccccc2cc1O
5.84 µM	Nc1ccc(C(=O)NN=Cc2cc(N=Nc3cccc4ccccc34)ccc2O)cc1
5.01 µM	COC(=O)c1ccccc1NCc1cc(=O)oc2cc(O)c(O)cc12
inactive	COc1ccc(NC(=O)CN(C)C(=O)c2cc3c(s2)CCC3)cc1
7.34 µM	COc1ccc(Cc2nnc(NC(=O)Cc3cccs3)s2)cc1OC
6.88 µM	O=C(NN=Cc1cccc(F)c1)c1cc(-c2ccco2)nc2ccccc12
